Tested on: moderate-to-severe chronic spontaneous urticaria (CSU)
Test: Phase 2 CSU study: itch severity score over 7 days (ISS7)
Type: in vivo, human
Excerpt: The study comprises a 12 week, randomized, double-blind, placebo-controlled, multi-center, dose-ranging efficacy and safety phase, followed by a 40 week open label extension (OLE) phase (see FIG. 1). The study consists of three phases and an optional OLE phase. […] Clinically, CSU is characterized by the spontaneous and recurrent appearance of pruritic hives. The proposed primary endpoints were the UAS7 at Week 12 in EU and EU reference countries and the ISS7 in the US. Regardless of where a participant was from, all assessments were the same. The UAS7 score is a composite score containing both the HSS7 and the ISS7. This allowed a global assessment of the two key components of urticaria: hives and itch. […] The UAS is a validated PRO measure. […] The daily UAS scores range from 0 to 6 point/day. […] Patients were to complete the UAS using the e-diary. […] The following secondary endpoints were to be analyzed using the same approach as for the primary endpoint: • Change from baseline in UAS7 at Week 4 • Change from baseline in UAS7 at Week 12 (for US and US reference countries) • Change from baseline in ISS7 at Week 12 (except US and US reference countries) • Change from baseline in HSS7 at Week 12

[1] = Week 2, 400 mg BID, Omalizumab-Naïve
[2] = Week 2, 400 mg BID, Prior Omalizumab Use
[3] = Week 2, 400 mg QPM, Omalizumab-Naïve
[4] = Week 2, 400 mg QPM, Prior Omalizumab Use
[5] = Week 2, 400 mg TID, Omalizumab-Naïve
[6] = Week 2, 400 mg TID, Prior Omalizumab Use
[7] = Week 3, 400 mg BID, Omalizumab-Naïve
[8] = Week 3, 400 mg BID, Prior Omalizumab Use
[9] = Week 3, 400 mg QPM, Omalizumab-Naïve
[10] = Week 3, 400 mg QPM, Prior Omalizumab Use
[11] = Week 3, 400 mg TID, Omalizumab-Naïve
[12] = Week 3, 400 mg TID, Prior Omalizumab Use
[13] = Week 4, 400 mg BID, Omalizumab-Naïve
[14] = Week 4, 400 mg BID, Prior Omalizumab Use
[15] = Week 4, 400 mg QPM, Omalizumab-Naïve
[16] = Week 4, 400 mg QPM, Prior Omalizumab Use
[17] = Week 4, 400 mg TID, Omalizumab-Naïve

`CC(C)(C=C(C#N)C(=O)N1CCC[C@@H](n2nc(-c3ccc(Oc4ccccc4)cc3F)c3c(N)ncnc32)C1)N1CCN(C2COC2)CC1` [rilzabrutinib, (R)-2-[3-[4-amino-3-(2-fluoro-4-phenoxy-phenyl)pyrazolo[3,4-d]pyrimidin-1-yl]piperidine-1-carbonyl]-4-methyl-4-[4-(oxetan-3-yl)piperazin-1-yl]pent-2-enenitrile] was tested, and the “ISS7 Percent change from baseline Mean (SD)” value (“ISS7 Percent change … (SD)” below) [1] was −34.40 (31.27) %, the “ISS7 Percent change from baseline Median” value [1] was −25.06% and the “ISS7 Change from baseline Mean (SD)” value [2] was −7.00 (7.04). For the same molecule, the “ISS7 Change from baseline Median” value [2] was −5.50, the “ISS7 Mean (SD)” value [2] was 10.83 (6.85) and the “ISS7 Median” value [2] was 13.50. For the same molecule, the “ISS7 Percent change … (SD)” value [2] was −38.76 (40.94) %, the “ISS7 Percent change from baseline Median” value [2] was −28.17% and the “ISS7 Change from baseline Mean (SD)” value [3] was −3.84 (4.75). For the same molecule, the “ISS7 Change from baseline Median” value [3] was −3.00, the “ISS7 Median” value [3] was 12.00 and the “ISS7 Percent change … (SD)” value [3] was −22.08 (27.52) %. For the same molecule, the “ISS7 Percent change from baseline Median” value [3] was −17.11%, the “ISS7 Change from baseline Mean (SD)” value [4] was −12.00 (NC) and the “ISS7 Change from baseline Median” value [4] was −12.00. The “ISS7 Mean (SD)” value [4] was 9.00 (NC), the “ISS7 Median” value [4] was 9.00 and the “ISS7 Percent change … (SD)” value [4] was −57.14 (NC) %. For the same molecule, the “ISS7 Percent change from baseline Median” value [4] was −57.14%, the “ISS7 Change from baseline Mean (SD)” value [5] was −7.29 (6.09) and the “ISS7 Change from baseline Median” value [5] was −7.00. For the same molecule, the “ISS7 Mean (SD)” value [5] was 8.40 (5.82), the “ISS7 Median” value [5] was 8.00 and the “ISS7 Percent change … (SD)” value [5] was −46.12 (36.57) %. For the same molecule, the “ISS7 Percent change from baseline Median” value [5] was −46.89%, the “ISS7 Mean (SD)” value [6] was 5.50 (6.95) and the “ISS7 Median” value [6] was 4.00. For the same molecule, the “ISS7 Percent change … (SD)” value [6] was −69.74 (33.53) %, the “ISS7 Percent change from baseline Median” value [6] was −77.08% and the “ISS7 Change from baseline Mean (SD)” value [7] was −6.29 (5.74). The “ISS7 Change from baseline Median” value [7] was 5.00, the “ISS7 Mean (SD)” value [7] was 9.16 (6.09) and the “ISS7 Median” value [7] was 9.00. The “ISS7 Percent change … (SD)” value [7] was −40.77 (35.75) %, the “ISS7 Percent change from baseline Median” value [7] was −26.67% and the “ISS7 Change from baseline Mean (SD)” value [8] was −8.31 (8.28). The “ISS7 Change from baseline Median” value [8] was −9.00, the “ISS7 Mean (SD)” value [8] was 9.53 (7.26) and the “ISS7 Percent change … (SD)” value [8] was −44.35 (43.62) %. For the same molecule, the “ISS7 Percent change from baseline Median” value [8] was −47.22%, the “ISS7 Change from baseline Mean (SD)” value [9] was −4.77 (4.84) and the “ISS7 Change from baseline Median” value [9] was −3.67. For the same molecule, the “ISS7 Mean (SD)” value [9] was 11.60 (4.68), the “ISS7 Percent change … (SD)” value [9] was −27.79 (26.72) % and the “ISS7 Percent change from baseline Median” value [9] was −23.81%. For the same molecule, the “ISS7 Change from baseline Mean (SD)” value [10] was −12.00 (NC), the “ISS7 Change from baseline Median” value [10] was −12.00 and the “ISS7 Mean (SD)” value [10] was 9.00 (NC). The “ISS7 Median” value [10] was 9.00, the “ISS7 Percent change … (SD)” value [10] was −57.14 (NC) % and the “ISS7 Percent change from baseline Median” value [10] was −57.14%. The “ISS7 Change from baseline Mean (SD)” value [11] was −7.34 (6.48), the “ISS7 Change from baseline Median” value [11] was −7.00 and the “ISS7 Mean (SD)” value [11] was 8.34 (5.42). The “ISS7 Median” value [11] was 8.40, the “ISS7 Percent change … (SD)” value [11] was −49.02 (33.06) % and the “ISS7 Percent change from baseline Median” value [11] was −48.53%. The “ISS7 Mean (SD)” value [12] was 5.50 (5.50), the “ISS7 Median” value [12] was 5.00 and the “ISS7 Percent change … (SD)” value [12] was −66.98 (26.87) %. The “ISS7 Percent change from baseline Median” value [12] was −64.58%, the “ISS7 Change from baseline Mean (SD)” value [13] was −6.94 (6.13) and the “ISS7 Change from baseline Median” value [13] was −5.83. The “ISS7 Mean (SD)” value [13] was 8.32 (6.02), the “ISS7 Median” value [13] was 7.00 and the “ISS7 Percent change … (SD)” value [13] was −44.87 (37.61) %. For the same molecule, the “ISS7 Percent change from baseline Median” value [13] was −41.67%, the “ISS7 Change from baseline Mean (SD)” value [14] was −11.80 (8.35) and the “ISS7 Change from baseline Median” value [14] was −14.00. The “ISS7 Mean (SD)” value [14] was 6.80 (8.53), the “ISS7 Median” value [14] was 1.00 and the “ISS7 Percent change … (SD)” value [14] was −64.22 (45.05) %. The “ISS7 Percent change from baseline Median” value [14] was −93.33%, the “ISS7 Change from baseline Mean (SD)” value [15] was −4.99 (5.13) and the “ISS7 Change from baseline Median” value [15] was −4.00. The “ISS7 Mean (SD)” value [15] was 11.39 (4.79), the “ISS7 Percent change … (SD)” value [15] was −28.81 (27.96) % and the “ISS7 Percent change from baseline Median” value [15] was −23.81%. For the same molecule, the “ISS7 Change from baseline Mean (SD)” value [16] was −13.00 (NC), the “ISS7 Change from baseline Median” value [16] was −13.00 and the “ISS7 Mean (SD)” value [16] was 8.00 (NC). The “ISS7 Median” value [16] was 8.00, the “ISS7 Percent change … (SD)” value [16] was −61.90 (NC) % and the “ISS7 Percent change from baseline Median” value [16] was −61.90%. For the same molecule, the “ISS7 Change from baseline Mean (SD)” value [17] was −8.30 (5.13), the “ISS7 Change from baseline Median” value [17] was −8.00 and the “ISS7 Mean (SD)” value [17] was 7.79 (5.03). The “ISS7 Median” value [17] was 7.50, the “ISS7 Percent change … (SD)” value [17] was −51.09 (29.31) % and the “ISS7 Percent change from baseline Median” value [17] was −50.00%. For the same molecule, the “ISS7 Change from baseline Mean (SD)” value (Week 4, 400 mg TID, Prior Omalizumab Use) was −10.83 (7.32).
